Measured values taken from patent US11643417B2, “Tetrahydrobenzofurodiazepinone compound and pharmaceutical use thereof” (priority 2020, dated 2023).
pKi: −log10 of the molar value. Where two headings read alike, the source gives them in different places.

Target: human Pim-1 (Homo sapiens (Human), UniProt P11309)
Experiment: biochemical
Type: biochemical
Details: Ki converted from IC50, purified human Pim-1, Pim2tide substrate, ADP-Glo; for pKi: read-out: hPim1 Ki
Experimental: The human Pim-1 inhibitory activity of the test compounds was evaluated as follows.
(1) Purification of Human Pim-1
DNA fragment in which a His-Tag sequence and a translation termination sequence are added to the 3′-end of human Pim-1 translation sequence was amplified by PCR (Polymerase Chain Reaction), using human Pim-1 gene-inserted plasmid DNA (Kazusa DNA Laboratory, model number FXC11400) as a template. The amplified DNA fragment was fused with pGEx-6P-1 (GE Healthcare Japan, model number 27-4597-1) digested with BamHI and EcoRI using In-Fusion HD Cloning Kit (Takara Bio, model number 639649). […] The base sequence of Pim-1 cloned into vector was determined by Dye Terminator method using BigDye Terminator v3.1 Cycle Sequencing Kit (Applied Biosystems, model number 4337456). […] Escherichia coli BL21 (DE3) (Merck KGaA, model number 69449-4) transformed with human Pim-1-expressed plasmid DNA was cultured in 2×YT medium (Becton Dickinson, model number 2404020) at 30° C., until the optical concentration at 620 nm (OD620) reached 0.6, and then cultured overnight at 20° C. in the presence of 0.5 mmol/L isopropyl b-D-1-thiogalactopyranoside. After the completion of so the culture, the cells were collected and suspended in Homogenate Buffer (50 mmol/L Tris-HCl (pH 7.5), 500 mmol/L NaCl, 1% Tween20, complete, EDTA-free (Roche, model number 1873580)), and the suspended cells were lysed by passing through a microfluidizer M-110H (Mizuho Kogyo Co., Ltd.). The lysate was centrifuged at 10,100×g for 10 minutes, 4° C., and the supernatant was filtered through MILLEX-HV Filter (0.45 μm) (Millipore, SLHV033RS) to remove the cell residues. The filtrate was loaded onto complete His-Tag Purification Resin (Roche Diagnostics, model number 05 893 682 0.01). The column was washed with Equilibration Buffer-1 (50 mmol/L Tris-HCl (pH 7.5), 500 mmol/L NaCl, 1% Tween 20) containing 5 mmol/L Imidazole, followed by Equilibration Buffer-1 containing 50 mmol/L Imidazole, the human Pim-1 to which GST-Tag derived from pGEx-6P-1 was eluted with Equilibration Buffer-1 containing 150 mmol/L imidazole. […] The protease reaction was carried out by stirring overnight at 4° C., and the human Pim-1 in which the GST-Tag sequence was cleaved was eluted. The eluate was loaded onto a gel filtration column (Superdex-200 […] (GE Healthcare, model number 17-5175-01)) equilibrated with Equilibration Buffer-3 (50 mmol/L Tris-HCl (pH 7.5), 500 mmol/L NaCl, 0.05% Tween20, 0.5 mmol/L EDTA, 2 mmol/L DTT, 10% Glycerol), and eluted. The eluate was used as a human Pim-1 purified fraction.
The protein concentration of the human Pim-1 purified fraction was measured with Pierce 660 nm Protein Assay Reagent (Thermo Fisher Scientific, model number 22660). The purified fraction was rapidly frozen in liquid nitrogen, and then stored at −80° C. The His-Tag-added human Pim-1 was detected by Western blotting using a mouse anti-His monoclonal antibody (WAKO, model number 011-23091).
(2) Evaluation of Human Pim-1 Inhibitory Activity
The calculation of the Pim-1 inhibitory activity of the compound was performed using the following solution according to the protocol attached to ADP-Glo Kinase Assay (cat. V9102, Promega). The purified enzyme of human Pim-1 described above was used.
(i) Preparation of Solution
The kinase buffer solution (50 mmol/L HEPES (pH 7.5), 5 mmol/L MgCl2, 1 mmol/L DTT, 0.05% BSA) was prepared by dissolving HEPES (Jena Bioscience), MgCl2 (Sigma-Aldrich), DTT (Sigma-Aldrich) and BSA (Sigma-Aldrich) in purified water.
The ATP solution (288 μmol/L) was prepared by dissolving 100 mmol/L ATP (Promega) in the kinase buffer solution.

human Pim-1, sequence (P11309 whole entry): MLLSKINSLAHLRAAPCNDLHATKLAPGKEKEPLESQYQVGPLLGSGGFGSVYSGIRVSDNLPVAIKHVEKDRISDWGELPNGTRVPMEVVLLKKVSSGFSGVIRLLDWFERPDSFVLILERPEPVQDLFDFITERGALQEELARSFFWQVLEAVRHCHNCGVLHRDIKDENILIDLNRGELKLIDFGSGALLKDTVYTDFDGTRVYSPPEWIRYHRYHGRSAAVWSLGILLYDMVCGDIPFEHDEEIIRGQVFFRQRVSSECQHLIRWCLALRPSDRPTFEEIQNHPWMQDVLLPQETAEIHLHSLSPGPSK

SMILES	pKi	Ki (hPim1 Ki (nM)) [nM]
N#CC1CCOC(CCN2CCNC(=O)c3oc4ccc(C(F)(F)F)cc4c32)C1 (stereo not shown) [Example 2]	8.95	
CC1COC(CCN2CCNC(=O)c3oc4ccc(C(F)(F)F)cc4c32)CC1O (stereo not shown) [Example 3]	9.22	
O=C1NCCN(CCC2CC(O)(CO)CCO2)c2c1oc1ccc(C(F)(F)F)cc21 (stereo not shown) [Example 4]	9.35	
O=C1NCCN(CCC2CCC(CO)CCO2)c2c1oc1ccc(C(F)(F)F)cc21 (stereo not shown) [Example 9]	9.32	
O=C1NCCN(CC(F)(F)C2CC(O)(CO)CCO2)c2c1oc1ccc(C(F)(F)F)cc21 (stereo not shown) [Example 13]	10.68	
O=C1NCCN(CC2(F)COC2)c2c1oc1ccc(C(F)(F)F)cc21 [Example 16]	7.96	
COC(C1CC(O)C1)C1(CN2CCNC(=O)c3oc4ccc(C(F)(F)F)cc4c32)CC1 (stereo not shown) [Example 17]	9.63	
O=C1NCCN(CC(F)(F)C2CC(O)(C(F)(F)F)CCO2)c2c1oc1ccc(C(F)(F)F)cc21 (stereo not shown) [Example 19]	10.00	
CN1CCN(CC(F)(F)C2CC(O)CCO2)c2c(oc3ccc(C(F)(F)F)cc23)C1=O (stereo not shown) [Example 20]	9.42	
CN1CCN(CC(F)(F)C2CC(O)(CO)CCO2)c2c(oc3ccc(C(F)(F)F)cc23)C1=O (stereo not shown) [Example 21]	9.48	
O=C1NCCN(CCC2CCCCC2)c2c1oc1ccc(C(F)(F)F)cc21 [Example 25]	7.96	
CC(C)(O)C1(O)CCOC(C(F)(F)CN2CCNC(=O)c3oc4ccc(C(F)(F)F)cc4c32)C1 (stereo not shown) [Example 30]	10.24	
N#CC1(CCO)CCOC(C(F)(F)CN2CCNC(=O)c3oc4ccc(C(F)(F)F)cc4c32)C1 (stereo not shown) [Example 33]	10.10	
COC1(CO)CCOC(C(F)(F)CN2CCNC(=O)c3oc4ccc(C(F)(F)F)cc4c32)C1 (stereo not shown) [Example 34]	10.69	
O=C1NCCN(CCC2CC(O)CCC2(F)F)c2c1oc1ccc(C(F)(F)F)cc21 (stereo not shown) [Example 38]	9.72	
O=C1NCCN(CCC2CCCCO2)c2c1oc1ccc(C(F)(F)F)cc21 (stereo not shown) [Example 40]	9.01	
O=C1NCCN(CC[C@H]2CO[C@H](CO)CO2)c2c1oc1ccc(C(F)(F)F)cc21 [Example 41]	9.03	
O=C1NCCN(CC[C@H]2CO[C@@H](CO)CO2)c2c1oc1ccc(C(F)(F)F)cc21 [Example 42]	9.25	
C[C@H]1CO[C@@H](CCN2CCNC(=O)c3oc4ccc(C(F)(F)F)cc4c32)CO1 [Example 43]	9.13	
C[C@@H]1CO[C@@H](CCN2CCNC(=O)c3oc4ccc(C(F)(F)F)cc4c32)CO1 [Example 44]	8.98	
O=C1NCCN(CC(F)(F)C2CC(CO)CCO2)c2c1oc1ccc(C(F)(F)F)cc21 (stereo not shown) [Example 47]	10.61	
CC(C)(O)C1CCOC(C(F)(F)CN2CCNC(=O)c3oc4ccc(C(F)(F)F)cc4c32)C1 (stereo not shown) [Example 49]	10.41	
O=C1NCCN(CC(F)(F)C2CC(OC(F)F)CCO2)c2c1oc1ccc(C(F)(F)F)cc21 (stereo not shown) [Example 54]	9.88	
CC1(O)CCOC(C(F)(F)CN2CCNC(=O)c3oc4ccc(C(F)(F)F)cc4c32)C1 (stereo not shown) [Example 58, 1-(2,2-difluoro-2-(4-hydroxy-4-methyltetrahydro-2H-pyran-2-yl)ethyl)-9-(trifluoromethyl)-1,2,3,4-tetrahydro-5H-benzofuro[3,2-e][1,4]diazepin-5-one]	10.78	
CC1(O)CCOC(C(F)(F)CN2CCNC(=O)c3oc4ccc(C(F)(F)F)cc4c32)C1 (stereo not shown) [Example 59, 1-(2,2-difluoro-2-(4-hydroxy-4-methyltetrahydro-2H-pyran-2-yl)ethyl)-9-(trifluoromethyl)-1,2,3,4-tetrahydro-5H-benzofuro[3,2-e][1,4]diazepin-5-one]	9.97	

SMILES	pKi	Ki (hPim1 Ki (nM)) [nM]
O=C1NCCN(CCC2CCC(O)CC2)c2c1oc1ccc(C(F)(F)F)cc21 (stereo not shown) [Example 60]		0.273
O=C1NCCN(CC(F)(F)C2CC(O)CCC2(F)F)c2c1oc1ccc(C(F)(F)F)cc21 (stereo not shown) [Example 62]	10.34	
C[C@H]1CO[C@H](CCN2CCNC(=O)c3oc4ccc(C(F)(F)F)cc4c32)CO1 [Example 63]	9.34	
C[C@@H]1CO[C@H](CCN2CCNC(=O)c3oc4ccc(C(F)(F)F)cc4c32)CO1 [Example 64]	9.58	
O=C1NCCN(CC(F)(F)C2CCOCC2)c2c1oc1ccc(C(F)(F)F)cc21 [Example 65]	9.92	
CC1(O)CCOC(C(F)(F)CN2CCNC(=O)c3oc4ccc(C(F)(F)F)cc4c32)C1 (stereo not shown) [Example 66, 1-(2,2-difluoro-2-(4-hydroxy-4-methyltetrahydro-2H-pyran-2-yl)ethyl)-9-(trifluoromethyl)-1,2,3,4-tetrahydro-5H-benzofuro[3,2-e][1,4]diazepin-5-one]	10.55	
CC1(O)CCOC(C(F)(F)CN2CCNC(=O)c3oc4ccc(C(F)(F)F)cc4c32)C1 (stereo not shown) [Example 67, 1-(2,2-difluoro-2-(4-hydroxy-4-methyltetrahydro-2H-pyran-2-yl)ethyl)-9-(trifluoromethyl)-1,2,3,4-tetrahydro-5H-benzofuro[3,2-e][1,4]diazepin-5-one]	9.62	
O=C(OC[C@@H]1CO[C@H](CCN2CCNC(=O)c3oc4ccc(C(F)(F)F)cc4c32)CO1)c1ccccc1 [Example 69]	7.73	
CC1(C)OCC(C(F)(F)CN2CCNC(=O)c3oc4ccc(C(F)(F)F)cc4c32)CO1 [Example 71]	8.89	
O=C1NCCN(CC[C@@H]2CO[C@H](CO)CO2)c2c1oc1ccc(C(F)(F)F)cc21 [Example 72]	8.64	
O=C(OC[C@H]1CO[C@H](CCN2CCNC(=O)c3oc4ccc(C(F)(F)F)cc4c32)CO1)c1ccccc1 [Example 73]	8.32	
O=C1NCCN(CC[C@@H]2CO[C@@H](CO)CO2)c2c1oc1ccc(C(F)(F)F)cc21 [Example 74]	9.13	
O=C1CCC(CCN2CCNC(=O)c3oc4ccc(C(F)(F)F)cc4c32)CC1 [Example 75]	8.79	
O=C1NCCN(CC(F)(F)[C@@H]2CO[C@@H](CO)CO2)c2c1oc1ccc(C(F)(F)F)cc21 [Example 77, 1-(2,2-difluoro-2-((2S,5S)-5-(hydroxymethyl)-1,4-dioxan-2-yl)ethyl)-9-(trifluoromethyl)-1,2,3,4-tetrahydro-5H-benzofuro[3,2-e][1,4]diazepin-5-one]	10.36	
O=C1NCCN(CC(F)(F)[C@@H]2CO[C@H](CO)CO2)c2c1oc1ccc(C(F)(F)F)cc21 [Example 78]	9.64	
C[C@]1(O)CC[C@@H](CCN2CCNC(=O)c3oc4ccc(C(F)(F)F)cc4c32)CC1 [Example 79]	9.15	
C[C@]1(O)CC[C@H](CCN2CCNC(=O)c3oc4ccc(C(F)(F)F)cc4c32)CC1 [Example 80]	9.69	
O=C1NCCN(CCC2CC3CCC(C2)O3)c2c1oc1ccc(C(F)(F)F)cc21 (stereo not shown) [Example 81]	8.95	
O=C1NCCN(CCC2CC3(COC3)C2)c2c1oc1ccc(C(F)(F)F)cc21 [Example 82]	8.69	
O=C1NCCN(CC[C@H]2CC[C@@H](O)CC2)c2c1oc1ccc(C(F)(F)F)cc21 [Example 83]	9.12	
O=C1NCCN(CC[C@H]2CC[C@@](O)(C(F)(F)F)CC2)c2c1oc1ccc(C(F)(F)F)cc21 [Example 84]	9.63	
O=C1NCCN(CC[C@H]2CC[C@](O)(C(F)(F)F)CC2)c2c1oc1ccc(C(F)(F)F)cc21 [Example 85]	8.39	
O=C1NCCN(CCC2CCC(C(=O)O)CC2)c2c1oc1ccc(C(F)(F)F)cc21 (stereo not shown) [Example 86]	8.39	
O=C1NCCN(CCC2CCS(=O)(=O)CC2)c2c1oc1ccc(C(F)(F)F)cc21 [Example 87]	8.71	
